{"source": "patent US9676714B2", "about": "“Sulfonylindole derivatives and method for preparing the same” (Daewoong Pharmaceutical Co., Ltd., priority 2013, dated 2017)", "note": "Where a name gives a salt, the structure may show the parent alone."}
{"molecular_target": "T1, proton pump (H+/K+-ATPase) (Sus scrofa, UniProt P19156)", "T1 construct": "Gastric vesicles were prepared from hog stomach via centrifugal separation; from tissue; host or cells: hog stomach (gastric vesicles, method of Rabon et al. 1988)", "T1 sequence (P19156 whole entry)": "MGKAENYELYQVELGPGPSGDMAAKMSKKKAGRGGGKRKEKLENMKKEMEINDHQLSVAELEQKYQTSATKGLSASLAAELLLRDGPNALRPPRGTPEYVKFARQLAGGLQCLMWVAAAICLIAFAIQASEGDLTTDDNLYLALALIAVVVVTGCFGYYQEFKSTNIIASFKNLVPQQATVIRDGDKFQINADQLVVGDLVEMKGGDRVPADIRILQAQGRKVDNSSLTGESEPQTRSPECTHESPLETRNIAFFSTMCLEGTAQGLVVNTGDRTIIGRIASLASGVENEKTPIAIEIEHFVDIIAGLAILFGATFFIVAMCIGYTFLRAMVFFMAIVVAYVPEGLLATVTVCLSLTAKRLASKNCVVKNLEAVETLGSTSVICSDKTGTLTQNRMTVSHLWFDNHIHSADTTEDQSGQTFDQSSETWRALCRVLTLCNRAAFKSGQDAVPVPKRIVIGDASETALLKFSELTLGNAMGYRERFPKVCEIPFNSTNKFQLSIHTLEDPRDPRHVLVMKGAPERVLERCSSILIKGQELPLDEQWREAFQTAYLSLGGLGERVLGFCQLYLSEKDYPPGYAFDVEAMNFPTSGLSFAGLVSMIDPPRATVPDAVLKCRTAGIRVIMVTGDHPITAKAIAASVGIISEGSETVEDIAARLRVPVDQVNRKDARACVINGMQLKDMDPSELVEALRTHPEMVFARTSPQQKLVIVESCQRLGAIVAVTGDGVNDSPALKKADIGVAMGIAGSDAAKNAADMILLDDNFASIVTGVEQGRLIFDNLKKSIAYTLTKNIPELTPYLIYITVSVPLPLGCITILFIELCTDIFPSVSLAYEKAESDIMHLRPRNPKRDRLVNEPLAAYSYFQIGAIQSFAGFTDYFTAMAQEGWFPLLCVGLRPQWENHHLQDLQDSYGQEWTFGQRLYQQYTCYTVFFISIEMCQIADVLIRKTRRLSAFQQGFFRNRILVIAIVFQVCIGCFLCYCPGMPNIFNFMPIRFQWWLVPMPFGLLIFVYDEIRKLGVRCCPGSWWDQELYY", "T1 sequence (P18434 whole entry partner)": "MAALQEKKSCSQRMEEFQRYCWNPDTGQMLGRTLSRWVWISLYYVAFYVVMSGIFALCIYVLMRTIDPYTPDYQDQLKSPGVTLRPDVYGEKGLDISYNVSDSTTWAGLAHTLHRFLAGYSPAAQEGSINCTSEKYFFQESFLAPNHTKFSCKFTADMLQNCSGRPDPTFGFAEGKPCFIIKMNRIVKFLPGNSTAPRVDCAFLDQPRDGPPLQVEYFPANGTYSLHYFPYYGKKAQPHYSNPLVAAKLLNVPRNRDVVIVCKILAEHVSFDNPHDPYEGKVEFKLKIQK", "assay": "Measurement of inhibitory effects on proton pump (H+/K+-ATPase) activities", "type": "biochemical", "settings": "hog gastric vesicles, K+-specific H+/K+-ATPase activity, Tris-HCl buffer pH 7.4, 37° C. for 40 minutes, malachite green Pi readout", "method_in_brief": "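Hog gastric vesicles in 60 mmol/l Tris-HCl pH 7.4 with 0.5% DMSO were treated with compounds at room temperature; reaction was started with 10 μl of 10 mmol/l ATP stock. Released Pi was read at 570 nm, K+-specific activity taken as the ±K+ difference. IC50 from 4-parameter logistic fit.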", "units": {"IC50": "µM"}}
{"smiles": "CNCc1cn(S(=O)(=O)c2cccnc2)c2cc(-c3cnc(OC)nc3)ccc12", "note": "[Example 259, 1-(6-(2-methoxypyrimidin-5-yl)-1-(pyridin-3-ylsulfonyl)-1H-indol-3-yl)-N-methylmethanamine hydrochloride]", "IC50": 40}
{"smiles": "CNCc1cn(S(=O)(=O)c2cccnc2)c2cc(N3CCCc4cc(C)ccc43)ccc12", "note": "[Example 260, N-methyl-1-(6-(6-methyl-3,4-dihydroquinolin-1(2H)-yl)-1-(pyridin-3-ylsulfonyl)-1H-indol-3-yl)methanamine hydrochloride]", "IC50": 0.38}
{"smiles": "CNCc1cn(S(=O)(=O)c2cccc(OC(F)F)c2)c2cc(-c3cccnc3C(F)(F)F)ccc12", "note": "[Example 261, 1-(1-((3-(difluoromethoxy)phenyl)sulfonyl)-6-(2-(trifluoromethyl)pyridin-3-yl)-1H-indol-3-yl)-N-methylmethanamine hydrochloride]", "IC50": 9.24}
{"smiles": "CNCc1cn(S(=O)(=O)c2cccc(OC(F)F)c2)c2cc(-c3ccnc(F)c3)ccc12", "note": "[Example 262, 1-(1-((3-(difluoromethoxy)phenyl)sulfonyl)-6-(2-fluoropyridin-4-yl)-1H-indol-3-yl)-N-methylmethanamine hydrochloride]", "IC50": 8.44}
{"smiles": "CNCc1cn(S(=O)(=O)c2cccc(OC(F)F)c2)c2cc(-c3cnc(F)c(C)c3)ccc12", "note": "[Example 263, 1-(1-((3-(difluoromethoxy)phenyl)sulfonyl)-6-(6-fluoro-5-methylpyridin-3-yl)-1H-indol-3-yl)-N-methylmethanamine hydrochloride]", "IC50": 60}
{"smiles": "CNCc1cn(S(=O)(=O)c2cccc(OC(F)F)c2)c2cc(-c3cncnc3)ccc12", "note": "[Example 264, 1-(1-((3-(difluoromethoxy)phenyl)sulfonyl)-6-(pyrimidin-5-yl)-1H-indol-3-yl)-N-methylmethanamine hydrochloride]", "IC50": 20}
{"smiles": "CNCc1cn(S(=O)(=O)c2ccc(OC(F)F)cc2)c2cc(-c3cncnc3)ccc12", "note": "[Example 265, 1-(1-((4-(difluoromethoxy)phenyl)sulfonyl)-6-(pyrimidin-5-yl)-1H-indol-3-yl)-N-methylmethanamine hydrochloride]", "IC50": 40}
{"smiles": "CNCc1cn(S(=O)(=O)c2cccc(OC(F)F)c2)c2cc(-c3cnc(OC)nc3)ccc12", "note": "[Example 266, 1-(1-((3-(difluoromethoxy)phenyl)sulfonyl)-6-(2-methoxypyrimidin-5-yl)-1H-indol-3-yl)-N-methylmethanamine hydrochloride]", "IC50": 45}
{"smiles": "CNCc1cn(S(=O)(=O)c2cccnc2)c2cc(Cc3ccccc3)ccc12", "note": "[Example 268, 1-(6-benzyl-(pyridin-3-ylsulfonyl)-1H-indol-3-yl)-N-methylmethanamine hydrochloride]", "IC50": 0.76}
{"smiles": "CNCc1cn(S(=O)(=O)c2cccnc2)c2cc(Cc3ccccc3F)ccc12", "note": "[Example 269, 1-(6-(2-fluorobenzyl)-1-(pyridin-3-ylsulfonyl)-1H-indol-3-yl)-N-methylmethanamine hydrochloride]", "IC50": 0.77}
{"smiles": "CNCc1cn(S(=O)(=O)c2cccnc2)c2cc(Cc3ccc(OC(F)(F)F)cc3)ccc12", "note": "[Example 271, N-methyl-1-(1-(pyridin-3-ylsulfonyl)-6-(4-(trifluoromethoxy)benzyl)-1H-indol-3-yl)methanamine hydrochloride]", "IC50": 3.95}
{"smiles": "CNCc1cn(S(=O)(=O)c2cccnc2)c2cc(Cc3ccc(Cl)cc3F)ccc12", "note": "[Example 274, 1-(6-(4-chloro-2-fluorobenzyl)-1-(pyridin-3-ylsulfonyl)-1H-indol-3-yl)-N-methylmethanamine hydrochloride]", "IC50": 1.17}
{"smiles": "CNCc1cn(S(=O)(=O)c2cccnc2)c2cc(Cc3ccc(Cl)cc3C(F)(F)F)ccc12", "note": "[Example 275, 1-(6-(4-chloro-2-(trifluoromethyl)benzyl)-1-(pyridin-3-ylsulfonyl)-1H-indol-3-yl)-N-methylmethanamine hydrochloride]", "IC50": 1.76}
{"smiles": "CNCc1cn(S(=O)(=O)c2cccnc2)c2cc(Cc3ccc(C(F)(F)F)cc3Cl)ccc12", "note": "[Example 276, 1-(6-(2-chloro-4-(trifluoromethyl)benzyl)-1-(pyridin-3-ylsulfonyl)-1H-indol-3-yl)-N-methylmethanamine hydrochloride]", "IC50": 0.67}
{"smiles": "CNCc1cn(S(=O)(=O)c2cccnc2)c2cc(Cc3ccc(OC)cc3F)ccc12", "note": "[Example 277, 1-(6-(2-fluoro-4-methoxybenzyl)-1-(pyridin-3-ylsulfonyl)-1H-indol-3-yl)-N-methylmethanamine hydrochloride]", "IC50": 0.76}
{"smiles": "CNCc1cn(S(=O)(=O)c2cccnc2)c2cc(Cc3ccc(OC(F)(F)F)cc3C)ccc12", "note": "[Example 278, N-methyl-1-(6-(2-methyl-4-(trifluoromethoxy)benzyl)-1-(pyridin-3-ylsulfonyl)-1H-indol-3-yl)methanamine hydrochloride]", "IC50": 1.97}
{"smiles": "CNCc1cn(S(=O)(=O)c2cccnc2)c2cc(Cc3ccc(OC(F)(F)F)cc3F)ccc12", "note": "[Example 279, 1-(6-(2-fluoro-4-(trifluoromethoxy)benzyl)-1-(pyridin-3-ylsulfonyl)-1H-indol-3-yl)-N-methylmethanamine hydrochloride]", "IC50": 2.19}
{"smiles": "CNCc1cn(S(=O)(=O)c2cccnc2)c2cc(Cc3ccc(OC(F)(F)F)cc3Cl)ccc12", "note": "[Example 280, 1-(6-(2-chloro-4-(trifluoromethoxy)benzyl)-1-(pyridin-3-ylsulfonyl)-1H-indol-3-yl)-N-methylmethanamine hydrochloride]", "IC50": 0.86}
{"smiles": "CNCc1cn(S(=O)(=O)c2cccnc2)c2cc(Cc3ccc(OC(F)(F)F)cc3OC)ccc12", "note": "[Example 281, 1-(6-(2-methoxy-4-(trifluoromethoxy)benzyl)-1-(pyridin-3-ylsulfonyl)-1H-indol-3-yl)-N-methylmethanamine hydrochloride]", "IC50": 1.87}
{"smiles": "CNCc1cn(S(=O)(=O)c2cccnc2)c2cc(Cc3cccnc3OC)ccc12", "note": "[Example 282, 1-(6-((2-methoxypyridin-3-yl)methyl)-1-(pyridin-3-ylsulfonyl)-1H-indol-3-yl)-N-methylmethanamine hydrochloride]", "IC50": 2.92}
{"smiles": "CNCc1cn(S(=O)(=O)c2cccnc2)c2cc(Cc3ccc(C)nc3F)ccc12", "note": "[Example 283, 1-(6-((2-fluoro-6-methylpyridin-3-yl)methyl)-1-(pyridin-3-ylsulfonyl)-1H-indol-3-yl)-N-methylmethanamine hydrochloride]", "IC50": 2.63}
{"smiles": "CNCc1cn(S(=O)(=O)c2cccnc2)c2cc(Cc3ccc(C)nc3Cl)ccc12", "note": "[Example 284, 1-(6-((2-chloro-6-methylpyridin-3-yl)methyl)-1-(pyridin-3-ylsulfonyl)-1H-indol-3-yl)-N-methylmethanamine hydrochloride]", "IC50": 1.01}
{"smiles": "CNCc1cn(S(=O)(=O)c2cccnc2)c2cc(Cc3ccc(Cl)nc3Cl)ccc12", "note": "[Example 285, 1-(6-((2,6-dichloropyridin-3-yl)methyl)-1-(pyridin-3-ylsulfonyl)-1H-indol-3-yl)-N-methylmethanamine hydrochloride]", "IC50": 0.65}
{"smiles": "CNCc1cn(S(=O)(=O)c2cccc(F)c2)c2cc(Cc3ccc(C)c(F)c3F)ccc12", "note": "[Example 287, 1-(6-(2,3-difluoro-4-methylbenzyl)-1-((3-fluorophenyl)sulfonyl)-1H-indol-3-yl)-N-methylmethanamine]", "IC50": 1.67}
{"smiles": "CNCc1cn(S(=O)(=O)c2cccc(C(F)(F)F)c2)c2cc(Cc3ccc(C)c(F)c3F)ccc12", "note": "[Example 288, 1-(6-(2,3-difluoro-4-methylbenzyl)-1-((3-(trifluoromethyl)phenyl)sulfonyl)-1H-indol-3-yl)-N-methylmethanamine]", "IC50": 1.45}
{"smiles": "CNCc1cn(S(=O)(=O)c2cccc(OC)c2)c2cc(Cc3ccc(C)c(F)c3F)ccc12", "note": "[Example 289, 1-(6-(2,3-difluoro-4-methylbenzyl)-1-((3-methoxyphenyl)sulfonyl)-1H-indol-3-yl)-N-methylmethanamine]", "IC50": 0.78}
{"smiles": "CNCc1cn(S(=O)(=O)c2cccc(OC(F)F)c2)c2cc(Cc3ccc(C)c(F)c3F)ccc12", "note": "[Example 290, 1-(6-(2,3-difluoro-4-methylbenzyl)-1-((3-(difluoromethoxy)phenyl)sulfonyl)-1H-indol-3-yl)-N-methylmethanamine]", "IC50": 0.93}
{"smiles": "CNCc1cn(S(=O)(=O)c2cccnc2)c2cc(Cc3ccc(OC)nc3Cl)ccc12", "note": "[Example 291, 1-(6-((2-chloro-6-methoxypyridin-3-yl)methyl)-1-(pyridin-3-ylsulfonyl)-1H-indol-3-yl)-N-methylmethanamine hydrochloride]", "IC50": 0.66}
{"smiles": "CNCc1cn(S(=O)(=O)c2cccc(F)c2)c2cc(Cc3ccc(OC)nc3Cl)ccc12", "note": "[Example 292, 1-(6-((2-chloro-6-methoxypyridin-3-yl)methyl)-1-((3-fluorophenyl)sulfonyl)-1H-indol-3-yl)-N-methylmethanamine hydrochloride]", "IC50": 0.64}
{"smiles": "CNCc1cn(S(=O)(=O)c2cccc(Cl)c2)c2cc(Cc3ccc(OC)nc3Cl)ccc12", "note": "[Example 293, 1-(6-((2-chloro-6-methoxypyridin-3-yl)methyl)-1-((3-chlorophenyl)sulfonyl)-1H-indol-3-yl)-N-methylmethanamine]", "IC50": 0.55}
{"smiles": "CNCc1cn(S(=O)(=O)c2cccc(C(F)(F)F)c2)c2cc(Cc3ccc(OC)nc3Cl)ccc12", "note": "[Example 294, 1-(6-((2-chloro-6-methoxypyridin-3-yl)methyl)-1-((3-(trifluoromethyl)phenyl)sulfonyl)-1H-indol-3-yl)-N-methylmethanamine hydrochloride]", "IC50": 0.63}
{"smiles": "CNCc1cn(S(=O)(=O)c2cccc(OC)c2)c2cc(Cc3ccc(OC)nc3Cl)ccc12", "note": "[Example 295, 1-(6-((2-chloro-6-methoxypyridin-3-yl)methyl)-1-((3-methoxyphenyl)sulfonyl)-1H-indol-3-yl)-N-methylmethanamine]", "IC50": 0.92}
